{
  "source": "patent EP2457907A1",
  "about": "“Flavagline derivatives as neuroprotective agents” (Université de Strasbourg, priority 2010, dated 2012)",
  "key": {"[1]": {"tested_on": "primary rat mesencephalic neurons", "assay": "Neuroprotection against MPP+-induced apoptosis (in vitro model of Parkinson's disease), TH immunostaining", "format": "cell-based", "conditions": "3µM MPP+; numbers only in Figure 4", "description": "The neuroprotectant activity was tested in a cellular model of Parkinson's disease on primary mesencephalic cultures of rat embryos treated by MPP^+ (3µM) (Hoglinger et al. 2003).\nPostmitotic dopaminergic neurons from the ventral mesencephalon of embryonic day 15.5 Wistar rat embryos (CERJ, Le Genest St. Isle, France) were dissociated mechanically, plated onto polyethylenimine-precoated 24-well culture plates, grown in N5 medium supplemented with 5 mM glucose, 5% horse serum and 2.5% fetal calf serum, as described previously (Michel et al., 1989). After 3 days, fetal calf serum was reduced to 0.5% to limit astrocyte proliferation. All experiments were initiated at day 5 in N5 medium containing 1 % horse serum and 0.1 % fetal calf serum. For each experiment MPP^+ (Sigma) was diluted to 10 mM in H2O. Cells were fixed with 4% formaldehyde for immunocytochemistry. Dopaminergic neurons were visualized by immunocytochemical detection of tyrosine hydroxylase (TH)."}, "[2]": {"tested_on": "primary cultures of mouse cerebellar neurons", "assay": "Neuroprotection against cisplatin-induced apoptosis (MTT assay)", "format": "cell-based", "conditions": "flavagline derivative 1 nM, cisplatin 2.5 µM, 48 hours; numbers only in Figure 3", "description": "The in vitro neuroprotectant activity against neurotoxicity of an antineoplastic agent was assayed on apoptosis induced by cisplatin (2.5 µM) in primary cultures of mouse cerebellar neurons. Neuronal survival was measured by MTT assay.\nCerebellar granular neurons were dissected from 7-day old mice as described previously (Benosman et al., 2007). Briefly, after enzymatic and mechanical dissociation, cells were plated at a density of 500 cells/mm^2 on 0.1 mg/ml polyornithine-pre-coated culture dishes and were grown at 37 °C in a humidified atmosphere (5% CO2 / 95% air). Plating culture medium contained DMEM (Dulbecco's modified Eagle's medium; Life Technology) supplemented with 10% heat-inactivated horse serum (Life Technology), 100 nM insulin (Life Technology), […] gentamycin (Life Technology) and 25 mM KCl. […]\nMature neurons were cultured in 96-well culture dishes (Costar) and incubated for 48 hours in presence of cisplatine (2.5 µM) and flavagline derivative (1 nM) (which were both added into the medium at the same time). […] Plates were stirred at room temperature to ensure that all crystals were dissolved and read on a Bio-Rad 680 micro-ELISA plate-reader, using a test wavelength of 490 nm and a non-specific wavelength of 650 nm for background absorbency. […]"}},
  "data": [
    {"smiles": "COc1cc(OC)c2c(c1)OC1(c3ccc(Br)cc3)C(c3ccccc3)CC(NC=O)C21O", "note": "(centres unmarked) [FL23, N-(3a-(4-Bromophenyl)-8b-hydroxy-6,8-dimethoxy-3-phenyl-2,3,3a,8b-tetrahydro-1H-cyclopenta[b]benzofuran-1-yl)formamide]", "values": [
      {"measurement": "protection against MPP+-induced neurodegeneration (TH-positive dopaminergic neurons)", "setting": "[1]", "value": "able to prevent or limit neuronal cell degeneration"},
      {"measurement": "protection of neurons against apoptosis induced by cisplatin (neuronal survival)", "setting": "[2]", "value": "able to prevent or limit neuronal cell apoptosis"}
    ]},
    {"smiles": "COc1cc(OC)c2c(c1)OC1(c3ccc(Br)cc3)C(c3cccc(F)c3)CC(NC=O)C21O", "note": "(centres unmarked) [FL32, N-(3a-(4-Bromophenyl)-3-(3-fluorophenyl)-8b-hydroxy-6,8-dimethoxy-2,3,3a,8b-tetrahydro-1H-cyclopenta[b]benzofuran-1-yl)formamide]", "values": [
      {"measurement": "protection against MPP+-induced neurodegeneration (TH-positive dopaminergic neurons)", "setting": "[1]", "value": "able to prevent or limit neuronal cell degeneration"}
    ]},
    {"smiles": "COc1cc(OC)c2c(c1)OC1(c3ccc(Br)cc3)C(c3cccc(F)c3)CC(NC(=O)N(C)C)C21O", "note": "(centres unmarked) [FL37]", "values": [
      {"measurement": "protection against MPP+-induced neurodegeneration (TH-positive dopaminergic neurons)", "setting": "[1]", "value": "able to prevent or limit neuronal cell degeneration"},
      {"measurement": "protection of neurons against apoptosis induced by cisplatin (neuronal survival)", "setting": "[2]", "value": "able to prevent or limit neuronal cell apoptosis"}
    ]}
  ]
}
